Experimental data published in patent US10219513B2, “Safening 4-amino-3-chloro-6-(4-chloro-2-fluoro-3-methoxyphenyl)-5-fluoropyridine-2-carboxylic acid compositions in Brassica species and methods of use thereof” (Dow AgroSciences LLC, priority 2016, dated 2019).
Values joined by “and” are separate entries in the source; they are usually repeats but may differ in a detail not shown here. Equal values may be shown once.

Experiments:
[1] = tested on: Brassica napus (winter oilseed rape, BRSNW); assay: Greenhouse postemergence application, visual injury after 20-22 d, BRSNW; details: for Obs % visual injury: BRSNW
Protocol: (§1) Seeds of the desired test plant species were planted in Sun Gro MetroMix® 306 planting mixture, which typically has a pH of 6.0 to 6.8 and an organic matter content of about 30 percent, in plastic pots with a surface area of 103.2 square centimeters (cm^2). […] The plants were grown for 7-36 days (d) in a greenhouse with an approximate 14-hour (h) photoperiod which was maintained at about 23° C. during the day and 22° C. during the night. Nutrients and water were added on a regular basis and supplemental lighting was provided with overhead metal halide 1000-Watt lamps as necessary. The plants were employed for testing when they reached the second or third true leaf stage.
(§2) An aliquot of formulated benzyl 4-amino-3-chloro-6-(4-chloro-2-fluoro-3-methoxyphenyl)-5-fluoropyridine-2-carboxylate (florpyrauxifen-benzyl; 300 grams active ingredient per liter (g ai/L) suspension concentrate (SC)) was placed in a 25 mL glass vial and diluted in a volume of 1.25% (v/v) aqueous Agri-dex crop oil concentrated to obtain a stock solution. […] The concentrated stock solutions were diluted with an aqueous mixture of 1.25% v/v of aqueous Agri-dex crop oil concentrate to provide the appropriate application rates. Compound requirements are based upon a 12 milliliter (mL) application volume at a rate of 187 liters per hectare (L/ha). Stock solutions of the formulated materials were prepared following the same procedure. Spray solutions of the compound mixtures were prepared by adding the stock solutions to the appropriate amount of dilution solution to form a 12 mL spray solution. Formulated compounds were applied to the plant material with an overhead Mandel track sprayer equipped with 8002E nozzles calibrated to deliver 187 L/ha over an application area of 0.503 square meters (m^2) at a spray height of 18 inches (43 centimeters (cm)) above average plant canopy. Control plants were sprayed in the same manner with the solvent blank.
(§3) The treated plants and control plants were placed in a greenhouse as described above and watered by sub-irrigation to prevent wash-off of the test compounds. After 20-22 d, the condition of the test plants as compared with that of the control plants was determined visually and scored on a scale of 0 to 100 percent where 0 corresponds to no injury and 100 corresponds to complete kill. Colby's equation was used to determine the herbicidal effects expected from the mixtures.
(§4) Benzyl 4-amino-3-chloro-6-(4-chloro-2-fluoro-3-methoxyphenyl)-5-fluoropyridine-2-carboxylate (florpyrauxifen-benzyl, 300 g ai/L SC) was combined in two-, three-, and four-way mixtures with one or more of the following: clopyralid-olamine (as Lontrel™ 35A Herbicidal Concentrate), quinclorac (as Facet 75DF), isoxadifen-ethyl (100 g/L SC), cloquintocet-mexyl (120 g/L EC) or mefenpyr-diethyl (as mefenpyr-diethyl 15WP). The mixtures were applied to kale/Chinese kale (Brassica alboglabra, BRSAG), Juncea canola or brown mustard (Brassica juncea, BRSJU), rutabaga (Brassica napus var. napobrassica, BRSNA), all varieties of canola and oilseed rape (Brassica napus, BRSNN), Nexera™ canola (Brassica napus, BRSNN-NEX), winter oilseed rape (Brassica napus, BRSNW), Roundup Ready® canola (Brassica napus, RR-BRSNN), and turnip or Polish canola (Brassica rapa, BRSRR), and the phytotoxicity of the compositions was measured.
(§5) Colby's equation was used to determine the herbicidal effects expected from the mixtures evaluated in the described trials (Colby, S. R. Calculation of the synergistic and antagonistic response of herbicide combinations. Weeds 1967, 15, 20-22.).
(§6) The following equation was used to calculate the expected activity of mixtures containing two active ingredients, A and B: Expected=A+B−(A×B/100) • A=observed efficacy of active ingredient A at the same concentration as used in the mixture; • B=observed efficacy of active ingredient B at the same concentration as used in the mixture.

[2] = tested on: Brassica napus (all varieties of canola and oilseed rape, BRSNN); assay: Greenhouse postemergence application, visual injury after 20-22 d, BRSNN; details: for Obs % visual injury: BRSNN
Protocol: as §1, §2, §3, §4, §5, §6

[3] = tested on: Brassica napus (Nexera canola, BRSNN-NEX); assay: Greenhouse postemergence application, visual injury after 20-22 d, BRSNN-NEX; details: for Obs % visual injury: BRSNN-NEX
Protocol: as §1, §2, §3, §4, §5, §6

[4] = tested on: Brassica napus (Roundup Ready canola, RR-BRSNN); assay: Greenhouse postemergence application, visual injury after 20-22 d, RR-BRSNN; details: for Obs % visual injury: RR-BRSNN
Protocol: as §1, §2, §3, §4, §5, §6

[5] = tested on: Brassica napus var. napobrassica (rutabaga, BRSNA); assay: Greenhouse postemergence application, visual injury after 20-22 d, BRSNA; details: for Obs % visual injury: BRSNA
Protocol: as §1, §2, §3, §4, §5, §6

[6] = tested on: Brassica rapa (turnip or Polish canola, BRSRR); assay: Greenhouse postemergence application, visual injury after 20-22 d, BRSRR; details: for Obs % visual injury: BRSRR
Protocol: as §1, §2, §3, §4, §5, §6

[7] = tested on: Brassica juncea (Juncea canola or brown mustard, BRSJU); assay: Greenhouse postemergence application, visual injury after 20-22 d, BRSJU; details: for Obs % visual injury: BRSJU
Protocol: as §1, §2, §3, §4, §5, §6

[8] = tested on: Brassica alboglabra (kale/Chinese kale, BRSAG); assay: Greenhouse postemergence application, visual injury after 20-22 d, BRSAG; details: for Obs % visual injury: BRSAG
Protocol: as §1, §2, §3, §4, §5, §6

[9] = clopyralid-olamine 50 g ai/ha alone
[10] = clopyralid-olamine 100 g ai/ha alone
[11] = clopyralid-olamine 200 g ai/ha alone
[12] = postemergence application, greenhouse, application rate (g ai/ha) varies

## CCOC(=O)C1=NN(c2ccc(Cl)cc2Cl)C(C)(C(=O)OCC)C1 (racemic) [Mefenpyr-diethyl, diethyl (RS)-1-(2,4-dichlorophenyl)-5-methyl-2-pyrazoline-3,5-dicarboxylate]
[1]; safener alone 5 g ai/ha
  Obs % visual injury BRSNW: 0%
[1]; safener alone 10 g ai/ha
  Obs % visual injury BRSNW: 0%
[1]; safener alone 20 g ai/ha
  Obs % visual injury BRSNW: 0%
[1]; safener alone 40 g ai/ha
  Obs % visual injury BRSNW: 0%
[2]; safener alone 5 g ai/ha
  Obs % visual injury BRSNN: 0%
[2]; safener alone 10 g ai/ha
  Obs % visual injury BRSNN: 0%
[2]; safener alone 20 g ai/ha
  Obs % visual injury BRSNN: 0%
[2]; safener alone 40 g ai/ha
  Obs % visual injury BRSNN: 0%
[3]; safener alone 5 g ai/ha
  Obs % visual injury BRSNN-NEX: 0%
[3]; safener alone 10 g ai/ha
  Obs % visual injury BRSNN-NEX: 0%
[3]; safener alone 20 g ai/ha
  Obs % visual injury BRSNN-NEX: 0%
[3]; safener alone 40 g ai/ha
  Obs % visual injury BRSNN-NEX: 0%
[4]; safener alone 5 g ai/ha
  Obs % visual injury RR-BRSNN: 0%
[4]; safener alone 10 g ai/ha
  Obs % visual injury RR-BRSNN: 0%
[4]; safener alone 20 g ai/ha
  Obs % visual injury RR-BRSNN: 0%
[4]; safener alone 40 g ai/ha
  Obs % visual injury RR-BRSNN: 0%
[5]; safener alone 5 g ai/ha
  Obs % visual injury BRSNA: 0%
[5]; safener alone 10 g ai/ha
  Obs % visual injury BRSNA: 0%
[5]; safener alone 20 g ai/ha
  Obs % visual injury BRSNA: 0%
[5]; safener alone 40 g ai/ha
  Obs % visual injury BRSNA: 0%
[6]; safener alone 5 g ai/ha
  Obs % visual injury BRSRR: 0%
[6]; safener alone 10 g ai/ha
  Obs % visual injury BRSRR: 0%
[6]; safener alone 20 g ai/ha
  Obs % visual injury BRSRR: 0%
[6]; safener alone 40 g ai/ha
  Obs % visual injury BRSRR: 0%
[7]; safener alone 5 g ai/ha
  Obs % visual injury BRSJU: 0%
[7]; safener alone 10 g ai/ha
  Obs % visual injury BRSJU: 0%
[7]; safener alone 20 g ai/ha
  Obs % visual injury BRSJU: 0%
[7]; safener alone 40 g ai/ha
  Obs % visual injury BRSJU: 0%
[8]; safener alone 5 g ai/ha
  Obs % visual injury BRSAG: 0%
[8]; safener alone 10 g ai/ha
  Obs % visual injury BRSAG: 0%
[8]; safener alone 20 g ai/ha
  Obs % visual injury BRSAG: 0%
[8]; safener alone 40 g ai/ha
  Obs % visual injury BRSAG: 0%

## O=C(O)c1nc(Cl)ccc1Cl [Clopyralid-olamine, 2-hydroxyethanaminium 3,6-dichloro-2-pyridinecarboxylate]
[1]; partner alone 50 g ai/ha
  Obs % visual injury: 0%
[1]; partner alone 100 g ai/ha
  Obs % visual injury: 0%
[1]; partner alone 200 g ai/ha
  Obs % visual injury: 0%
[1]; [9]
  % Visual Injury BRSNW Obs: 0%
  % Visual Injury Obs: 0%
[1]; [10]
  % Visual Injury BRSNW Obs: 0%
  % Visual Injury Obs: 0%
[1]; [11]
  % Visual Injury BRSNW Obs: 0%
  % Visual Injury Obs: 0%
[1]; [12]
  % Visual Injury BRSNW Obs: 0%
[2]; partner alone 50 g ai/ha
  Obs % visual injury: 2%
[2]; partner alone 100 g ai/ha
  Obs % visual injury: 0%
[2]; partner alone 200 g ai/ha
  Obs % visual injury: 0%
[2]; [9]
  % Visual Injury BRSNN Obs: 2%
  % Visual Injury Obs: 2%
[2]; [10]
  % Visual Injury BRSNN Obs: 0%
  % Visual Injury Obs: 0%
[2]; [11]
  % Visual Injury BRSNN Obs: 0%
  % Visual Injury Obs: 0%
[2]; [12]
  % Visual Injury BRSNN Obs: 2% and 0%
[3]; partner alone 50 g ai/ha
  Obs % visual injury: 0%
[3]; partner alone 100 g ai/ha
  Obs % visual injury: 0%
[3]; partner alone 200 g ai/ha
  Obs % visual injury: 0%
[3]; [9]
  % Visual Injury BRSNN-NEX Obs: 0%
  % Visual Injury Obs: 0%
[3]; [10]
  % Visual Injury BRSNN-NEX Obs: 0%
  % Visual Injury Obs: 0%
[3]; [11]
  % Visual Injury BRSNN-NEX Obs: 0%
  % Visual Injury Obs: 0%
[3]; [12]
  % Visual Injury BRSNN-NEX Obs: 0%
[4]; partner alone 50 g ai/ha
  Obs % visual injury: 0%
[4]; partner alone 100 g ai/ha
  Obs % visual injury: 0%
[4]; partner alone 200 g ai/ha
  Obs % visual injury: 0%
[4]; [9]
  % Visual Injury Obs: 0%
  % Visual Injury RR-BRSNN Obs: 0%
[4]; [10]
  % Visual Injury Obs: 0%
  % Visual Injury RR-BRSNN Obs: 0%
[4]; [11]
  % Visual Injury Obs: 0%
  % Visual Injury RR-BRSNN Obs: 0%
[4]; [12]
  % Visual Injury RR-BRSNN Obs: 0%
[5]; partner alone 50 g ai/ha
  Obs % visual injury: 0%
[5]; partner alone 100 g ai/ha
  Obs % visual injury: 0%
[5]; partner alone 200 g ai/ha
  Obs % visual injury: 0%
[5]; [9]
  % Visual Injury BRSNA Obs: 0%
  % Visual Injury Obs: 0%
[5]; [10]
  % Visual Injury BRSNA Obs: 0%
  % Visual Injury Obs: 0%
[5]; [11]
  % Visual Injury BRSNA Obs: 0%
  % Visual Injury Obs: 0%
[5]; [12]
  % Visual Injury BRSNA Obs: 0%
[6]; partner alone 50 g ai/ha
  Obs % visual injury: 0%
[6]; partner alone 100 g ai/ha
  Obs % visual injury: 0%
[6]; partner alone 200 g ai/ha
  Obs % visual injury: 0%
[6]; [9]
  % Visual Injury BRSRR Obs: 0%
  % Visual Injury Obs: 0%
[6]; [10]
  % Visual Injury BRSRR Obs: 0%
  % Visual Injury Obs: 0%
[6]; [11]
  % Visual Injury BRSRR Obs: 0%
  % Visual Injury Obs: 0%
[6]; [12]
  % Visual Injury BRSRR Obs: 0%
[7]; partner alone 50 g ai/ha
  Obs % visual injury: 0%
[7]; partner alone 100 g ai/ha
  Obs % visual injury: 0%
[7]; partner alone 200 g ai/ha
  Obs % visual injury: 0%
[7]; [9]
  % Visual Injury BRSJU Obs: 0%
  % Visual Injury Obs: 0%
[7]; [10]
  % Visual Injury BRSJU Obs: 0%
  % Visual Injury Obs: 0%
[7]; [11]
  % Visual Injury BRSJU Obs: 0%
  % Visual Injury Obs: 0%
[7]; [12]
  % Visual Injury BRSJU Obs: 0%
[8]; partner alone 50 g ai/ha
  Obs % visual injury: 0%
[8]; partner alone 100 g ai/ha
  Obs % visual injury: 0%
[8]; partner alone 200 g ai/ha
  Obs % visual injury: 0%
[8]; [9]
  % Visual Injury BRSAG Obs: 0%
  % Visual Injury Obs: 0%
[8]; [10]
  % Visual Injury BRSAG Obs: 0%
  % Visual Injury Obs: 0%
[8]; [11]
  % Visual Injury BRSAG Obs: 0%
  % Visual Injury Obs: 0%
[8]; [12]
  % Visual Injury BRSAG Obs: 0%
